Source: ChEMBL document CHEMBL1909046, “DrugMatrix in vitro pharmacology data”

Tests used:
[1] = target: T1, Vasoactive intestinal polypeptide receptor 1 (Homo sapiens, UniProt P32241); format: cell membranes, Membrane; conditions: ht-29; note: in other assays of this panel Not Active means under 50% inhibition at 10 µM
T1 sequence (P32241 whole entry): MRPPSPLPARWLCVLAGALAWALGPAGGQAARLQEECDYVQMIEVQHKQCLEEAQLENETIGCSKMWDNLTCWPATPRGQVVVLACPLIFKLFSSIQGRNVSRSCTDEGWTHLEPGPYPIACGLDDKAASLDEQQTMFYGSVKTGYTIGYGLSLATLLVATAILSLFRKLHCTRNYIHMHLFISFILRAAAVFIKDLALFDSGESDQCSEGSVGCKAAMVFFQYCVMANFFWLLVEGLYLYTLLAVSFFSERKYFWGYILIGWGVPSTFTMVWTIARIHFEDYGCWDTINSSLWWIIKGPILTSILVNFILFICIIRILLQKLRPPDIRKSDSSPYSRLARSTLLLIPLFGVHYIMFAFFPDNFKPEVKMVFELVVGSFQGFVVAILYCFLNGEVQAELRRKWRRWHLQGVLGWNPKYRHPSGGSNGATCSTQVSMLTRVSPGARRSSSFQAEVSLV

[2] = DRUGMATRIX: Potassium Channel [KATP] radioligand binding (ligand: [3H] Glyburide); format: cell membranes, Membrane; conditions: hit-t15; Not Active = under 50% inhibition at 10 µM
Glycine receptor = Glycine receptor (Rattus norvegicus, UniProt P22771+P24524+P07727+P20781); format: cell membranes, Wistar, Spinal cord, Membrane; note: in other assays of this panel Not Active means under 50% inhibition at 10 µM
D(1A) dopamine receptor = D(1A) dopamine receptor (Homo sapiens, UniProt P21728); test: DRUGMATRIX: Dopamine D1 radioligand binding (ligand: [3H] SCH-23390); format: cell membranes, CHO, Membrane; conditions: cho; Not Active = under 50% inhibition at 10 µM
Nitric oxide synthase 1 = Nitric oxide synthase 1 (Rattus norvegicus, UniProt P29476); format: tissue-based, Cerebellum; note: in other assays of this panel Not Active means under 50% inhibition at 10 µM
[3] = target: Vascular endothelial growth factor receptor 1 (Homo sapiens, UniProt P17948); format: cell-based; conditions: huvec; note: in other assays of this panel Not Active means under 50% inhibition at 10 µM
D(4) dopamine receptor = target: T2, D(4) dopamine receptor (Homo sapiens, UniProt P21917); test: DRUGMATRIX: Dopamine D4.2 radioligand binding (ligand: [3H] Spiperone); format: cell membranes, CHO-K1, Membrane; conditions: cho-k1; Not Active = under 50% inhibition at 10 µM
T2 sequence (P21917 whole entry): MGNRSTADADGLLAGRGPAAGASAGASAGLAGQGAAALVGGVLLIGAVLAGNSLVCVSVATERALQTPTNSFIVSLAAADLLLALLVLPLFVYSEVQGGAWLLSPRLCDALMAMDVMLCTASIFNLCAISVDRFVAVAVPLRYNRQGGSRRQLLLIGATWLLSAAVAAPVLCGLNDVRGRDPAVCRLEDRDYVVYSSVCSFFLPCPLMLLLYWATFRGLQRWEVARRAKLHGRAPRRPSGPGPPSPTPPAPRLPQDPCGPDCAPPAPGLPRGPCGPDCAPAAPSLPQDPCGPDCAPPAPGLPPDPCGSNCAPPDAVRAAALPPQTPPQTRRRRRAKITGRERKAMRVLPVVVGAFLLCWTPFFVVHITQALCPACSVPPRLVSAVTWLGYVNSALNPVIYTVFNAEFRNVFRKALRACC

Endothelin-1 receptor = target: T3, Endothelin-1 receptor (Homo sapiens, UniProt P25101); format: cell membranes, Membrane; conditions: cho-k1; note: in other assays of this panel Not Active means under 50% inhibition at 10 µM
T3 sequence (P25101 whole entry): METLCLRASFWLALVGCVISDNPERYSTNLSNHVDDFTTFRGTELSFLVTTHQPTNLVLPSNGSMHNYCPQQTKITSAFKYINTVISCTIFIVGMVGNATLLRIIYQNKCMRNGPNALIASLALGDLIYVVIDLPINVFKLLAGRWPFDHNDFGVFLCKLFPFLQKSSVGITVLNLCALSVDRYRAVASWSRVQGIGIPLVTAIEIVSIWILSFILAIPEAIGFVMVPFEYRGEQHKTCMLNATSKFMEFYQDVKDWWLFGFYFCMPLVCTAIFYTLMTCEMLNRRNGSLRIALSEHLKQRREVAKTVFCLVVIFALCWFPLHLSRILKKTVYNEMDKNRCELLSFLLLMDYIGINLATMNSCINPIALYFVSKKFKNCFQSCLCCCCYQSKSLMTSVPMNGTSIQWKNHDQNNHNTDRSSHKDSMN

Chain of Nitric oxide synthase 1 (P29476 whole entry): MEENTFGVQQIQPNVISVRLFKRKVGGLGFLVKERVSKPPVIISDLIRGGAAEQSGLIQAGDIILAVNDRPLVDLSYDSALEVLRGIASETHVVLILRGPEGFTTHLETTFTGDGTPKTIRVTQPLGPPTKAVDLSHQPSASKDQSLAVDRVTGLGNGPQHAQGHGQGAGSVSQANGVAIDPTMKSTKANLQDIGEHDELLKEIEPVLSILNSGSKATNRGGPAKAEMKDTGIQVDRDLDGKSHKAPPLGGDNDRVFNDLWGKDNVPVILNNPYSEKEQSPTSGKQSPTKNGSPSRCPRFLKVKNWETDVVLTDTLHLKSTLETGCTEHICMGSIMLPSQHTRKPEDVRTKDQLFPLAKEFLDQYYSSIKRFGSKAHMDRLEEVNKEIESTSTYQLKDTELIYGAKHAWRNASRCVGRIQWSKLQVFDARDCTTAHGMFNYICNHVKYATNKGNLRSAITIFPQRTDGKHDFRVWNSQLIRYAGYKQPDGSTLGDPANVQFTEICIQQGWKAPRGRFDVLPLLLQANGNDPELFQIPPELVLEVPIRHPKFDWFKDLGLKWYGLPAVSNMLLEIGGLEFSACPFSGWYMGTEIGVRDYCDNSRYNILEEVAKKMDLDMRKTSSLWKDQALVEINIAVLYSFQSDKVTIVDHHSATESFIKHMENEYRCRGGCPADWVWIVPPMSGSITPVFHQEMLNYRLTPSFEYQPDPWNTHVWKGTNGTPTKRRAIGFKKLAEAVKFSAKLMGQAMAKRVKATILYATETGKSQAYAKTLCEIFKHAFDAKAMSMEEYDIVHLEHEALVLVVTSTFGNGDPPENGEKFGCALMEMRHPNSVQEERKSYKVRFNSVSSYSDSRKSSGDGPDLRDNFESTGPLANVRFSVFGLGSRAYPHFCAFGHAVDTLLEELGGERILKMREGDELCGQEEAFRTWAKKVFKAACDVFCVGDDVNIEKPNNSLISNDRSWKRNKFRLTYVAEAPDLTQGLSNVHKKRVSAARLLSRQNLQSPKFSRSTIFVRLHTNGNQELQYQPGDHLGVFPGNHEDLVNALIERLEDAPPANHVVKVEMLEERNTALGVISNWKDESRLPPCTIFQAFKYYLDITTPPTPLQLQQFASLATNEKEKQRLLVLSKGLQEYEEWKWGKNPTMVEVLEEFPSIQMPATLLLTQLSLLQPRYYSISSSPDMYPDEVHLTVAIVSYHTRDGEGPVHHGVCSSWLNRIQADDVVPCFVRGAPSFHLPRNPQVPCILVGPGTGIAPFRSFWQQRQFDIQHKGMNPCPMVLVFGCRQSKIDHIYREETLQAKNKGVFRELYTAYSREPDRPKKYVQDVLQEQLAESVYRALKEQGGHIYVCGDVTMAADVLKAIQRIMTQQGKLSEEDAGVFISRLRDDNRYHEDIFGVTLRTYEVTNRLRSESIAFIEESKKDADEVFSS
Chain of D(1A) dopamine receptor (P21728 whole entry): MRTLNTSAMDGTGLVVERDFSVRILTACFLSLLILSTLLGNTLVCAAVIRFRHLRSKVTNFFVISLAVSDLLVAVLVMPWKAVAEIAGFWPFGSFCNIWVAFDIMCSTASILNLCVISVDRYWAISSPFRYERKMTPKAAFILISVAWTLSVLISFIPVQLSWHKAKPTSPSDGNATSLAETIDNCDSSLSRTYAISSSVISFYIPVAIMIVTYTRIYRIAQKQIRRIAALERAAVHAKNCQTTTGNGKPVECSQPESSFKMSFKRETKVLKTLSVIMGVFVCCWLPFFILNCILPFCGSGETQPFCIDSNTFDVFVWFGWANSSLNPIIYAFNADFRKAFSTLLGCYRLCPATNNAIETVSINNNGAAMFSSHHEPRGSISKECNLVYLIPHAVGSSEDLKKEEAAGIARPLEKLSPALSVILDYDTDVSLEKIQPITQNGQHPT
Chain of Vascular endothelial growth factor receptor 1 (P17948 whole entry): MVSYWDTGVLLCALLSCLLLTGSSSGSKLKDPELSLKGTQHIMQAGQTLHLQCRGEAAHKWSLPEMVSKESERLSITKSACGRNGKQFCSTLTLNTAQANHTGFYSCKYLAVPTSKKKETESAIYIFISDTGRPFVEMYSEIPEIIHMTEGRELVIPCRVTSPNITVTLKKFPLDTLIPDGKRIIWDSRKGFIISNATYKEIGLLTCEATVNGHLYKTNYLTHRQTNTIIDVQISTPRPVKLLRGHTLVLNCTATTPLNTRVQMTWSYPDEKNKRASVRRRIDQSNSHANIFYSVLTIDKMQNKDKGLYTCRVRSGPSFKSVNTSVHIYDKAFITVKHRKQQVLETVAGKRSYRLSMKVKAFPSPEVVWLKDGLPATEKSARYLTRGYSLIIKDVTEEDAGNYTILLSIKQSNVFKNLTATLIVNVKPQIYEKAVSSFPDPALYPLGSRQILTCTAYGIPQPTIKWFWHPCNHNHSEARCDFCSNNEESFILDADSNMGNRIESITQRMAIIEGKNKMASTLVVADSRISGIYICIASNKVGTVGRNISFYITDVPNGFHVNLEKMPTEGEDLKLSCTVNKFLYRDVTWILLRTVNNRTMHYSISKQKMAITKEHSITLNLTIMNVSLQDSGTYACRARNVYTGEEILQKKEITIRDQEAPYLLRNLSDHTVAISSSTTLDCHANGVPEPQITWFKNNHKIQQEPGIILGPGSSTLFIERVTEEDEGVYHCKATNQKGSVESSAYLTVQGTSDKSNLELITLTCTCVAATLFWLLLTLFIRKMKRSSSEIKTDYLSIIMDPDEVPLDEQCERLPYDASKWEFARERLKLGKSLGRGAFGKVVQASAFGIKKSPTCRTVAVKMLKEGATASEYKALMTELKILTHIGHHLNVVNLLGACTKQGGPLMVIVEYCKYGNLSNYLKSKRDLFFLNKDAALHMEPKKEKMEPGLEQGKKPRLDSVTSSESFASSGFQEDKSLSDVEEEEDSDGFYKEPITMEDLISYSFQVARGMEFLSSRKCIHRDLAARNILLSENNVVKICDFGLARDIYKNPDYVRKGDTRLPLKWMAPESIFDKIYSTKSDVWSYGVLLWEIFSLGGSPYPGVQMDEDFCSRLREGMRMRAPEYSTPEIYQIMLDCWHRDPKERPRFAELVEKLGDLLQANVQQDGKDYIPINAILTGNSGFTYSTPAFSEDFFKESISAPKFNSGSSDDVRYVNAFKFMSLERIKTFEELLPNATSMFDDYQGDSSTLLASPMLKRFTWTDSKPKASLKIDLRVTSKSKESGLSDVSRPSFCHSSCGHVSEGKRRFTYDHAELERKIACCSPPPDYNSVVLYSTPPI

O=C(O)CNCP(=O)(O)O [GLYPHOSATE]
Not Active: IC50 [1] | IC50 [2] | Ki [2] | IC50 (Glycine receptor) | IC50 (D(1A) dopamine receptor) | IC50 (Nitric oxide synthase 1) | IC50 [3] | IC50 (D(4) dopamine receptor) | IC50 (Endothelin-1 receptor)
